Where two headings read alike, the source gives them in different places.
Legend:
DLD1 BRCA2 (−/−) cells = assay: 7-day cell viability assay (CellTiter-Glo), DLD1 BRCA2 (−/−); assay type: cell-based, human; details: 7-day CellTiter-Glo, n=2, read-out: Viability IC50 (uM) DLD1 BRCA2 null
Description: (§1) Cell lines DLD1 WT and DLD1 BRCA2 (−/−) (Horizon Discovery Cat No. HD PAR-008 and HD-105-007) were plated in 384-well culture plates at seeding densities of 100cells/50 ul/well and 200 cells/50 uL/well respectively. The seeding densities are pre-determined from the growth curve kinetics performed to ensure log linear phase of cell growth for these 2 cell lines. These assay plates are then placed in the incubator at 37° C., 5% CO2, relative humidity >90% for a few hours before addition of test compounds. Compounds are dispensed using the Tecan HPD300 or Echo based on the plate map in the appropriate wells of the 384-well plates. The cells are treated with nine-point dose response with 3-fold serial dilutions of test compounds starting at 10 uM top concentration. After addition of the test compounds, the plates are incubated at 37° C., 5% CO2, relative humidity >90% for 7 days. CellTiter-Glo (Promega Cat. No. G7573), ATP detection reagent is prepared according to manufacturer's specifications. Cell assay plates are removed from incubator and bring to room temperature (RT) by letting them sit at bench top for at least 15 min. Using the MultiDrop liquid handler or a multichannel pipette, 35 μL/well of CTG is added and the plates are then placed shakes for 5 seconds, RT.

DLD1 WT cells = assay: 7-day cell viability assay (CellTiter-Glo), DLD1 parental (WT); assay type: cell-based, human; details: 7-day CellTiter-Glo, n=2
Description: as §1

Compound | IC50 (DLD1 BRCA2 (−/−) cells; Homo sapiens, DLD-1, 168 h) [µM] | IC50 (DLD1 WT cells; Homo sapiens, DLD-1, 168 h) [µM] | IC50 (DLD1 BRCA2 (−/−) cells) [µM] | IC50 (DLD1 WT cells) [µM]
COc1ccc(C(F)F)c(C(=O)N2Cc3nc(NC(=O)c4cnc(C)cc4-c4cc(Cl)ncc4OC)sc3C2)n1 | 0.001 to 0.1 | ≥ 10 |  | 
COc1cnc(Cl)cc1-c1cc(C)ncc1C(=O)Nc1nc2c(s1)CN(C(=O)c1ccc(C(F)F)c(OC)n1)C2 | 0.001 to 0.1 | 5 to 10 |  | 
COc1cnc(Cl)cc1-c1cc(C)ncc1C(=O)Nc1nc2c(s1)CN(C(=O)c1ncc(C(F)(F)F)c(C)c1C)C2 | 0.001 to 0.1 | ≥ 10 |  | 
COc1cnc(Cl)cc1-c1cc(C)ncc1C(=O)Nc1nc2c(s1)CN(C(=O)c1ccc(C)c(Cl)n1)C2 | 0.001 to 0.1 | ≥ 10 |  | 
COc1cnc(Cl)cc1-c1cc(C)ncc1C(=O)Nc1nc2c(s1)CN(C(=O)c1nc(C(F)F)ccc1F)C2 | 0.001 to 0.1 | ≥ 10 |  | 
COc1cnc(Cl)cc1-c1cc(C)ncc1C(=O)Nc1nc2c(s1)CN(C(=O)c1nc(C(F)F)ccc1C)C2 | 0.001 to 0.1 | ≥ 10 |  | 
COc1cnc(Cl)cc1-c1cc(C)ncc1C(=O)Nc1nc2c(s1)CN(C(=O)[C@H]1CC[C@@H](C(F)F)CC1)C2 [Example 909, 2′-chloro-N-(5-((1s,4s)-4-(difluoromethyl)cyclohexane-1-carbonyl)-5,6-dihydro-4H-pyrrolo[3,4-d]thiazol-2-yl)-5′-methoxy-6-methyl-[4,4′-bipyridine]-3-carboxamide] | 0.001 to 0.1 | ≥ 10 |  | 
2′-chloro-N-(5-(4-cyano-1-methyl-1H-pyrazole-5-carbonyl)-5,6-dihydro-4H-pyrrolo[3,4-d]thiazol-2-yl)-5′-methoxy-6-methyl-[4,4′-bipyridine]-3-carboxamide [Example 581] |  |  | 0.001 to 0.1 | ≥ 10
COc1cnc(Cl)cc1-c1cc(C)ncc1C(=O)Nc1nc2c(s1)CN(C(=O)c1ncc(C(F)F)cc1C)C2 | 0.001 to 0.1 | ≥ 10 |  | 
COc1cnc(Cl)cc1-c1cc(C)ncc1C(=O)Nc1nc2c(s1)CN(C(=O)c1nc(C)c(C(F)F)nc1C)C2 | 0.001 to 0.1 | ≥ 10 |  | 
COc1cnc(Cl)cc1-c1cc(C)ncc1C(=O)Nc1nc2c(s1)CN(C(=O)c1cc(C)c(C#N)cn1)C2 [Example 611] | 0.001 to 0.1 | ≥ 10 |  | 
COc1cnc(Cl)cc1-c1cc(C)ncc1C(=O)Nc1nc2c(s1)CN(C(=O)c1ncc(C(F)F)c(C)n1)C2 | 0.001 to 0.1 | ≥ 10 |  | 
4-(5-Cyano-2-methoxyphenyl)-N-(5-(3-(difluoromethyl)-4-methoxybenzoyl)-5,6-dihydro-4H-pyrrolo[3,4-d]thiazol-2-yl)-6-methylnicotinamide [Example 486] |  |  | 0.001 to 0.1 | ≥ 10
COc1cnc(Cl)cc1-c1cc(C)ncc1C(=O)Nc1nc2c(s1)CN(C(=O)c1nc(OC)c(Cl)nc1C)C2 | 0.001 to 0.1 | ≥ 10 |  | 
2′-Chloro-N-(5-(6-chloro-3-methylpyrazine-2-carbonyl)-5,6-dihydro-4H-pyrrolo[3,4-d]thiazol-2-yl)-5′-methoxy-6-methyl-[4,4′-bipyridine]-3-carboxamide [Example 505] |  |  | 0.001 to 0.1 | 5 to 10

Continued, in another order:

IC50 (DLD1 BRCA2 (−/−) cells; Homo sapiens, DLD-1, 168 h) [µM] | Compound | IC50 (DLD1 WT cells; Homo sapiens, DLD-1, 168 h) [µM] | IC50 (DLD1 BRCA2 (−/−) cells) [µM] | IC50 (DLD1 WT cells) [µM]
0.001 to 0.1 | COc1cnc(Cl)cc1-c1cc(C)ncc1C(=O)Nc1nc2c(s1)CN(C(=O)C1CCN(CC(F)(F)F)CC1)C2 [Example 959, 2′-chloro-5′-methoxy-6-methyl-N-(5-(1-(2,2,2-trifluoroethyl)piperidine-4-carbonyl)-5,6-dihydro-4H-pyrrolo[3,4-d]thiazol-2-yl)-[4,4′-bipyridine]-3-carboxamide] | ≥ 10 |  | 
0.001 to 0.1 | COc1nc(C(F)(F)F)ccc1C(=O)N1Cc2nc(NC(=O)c3cnc(C)cc3-c3cc(Cl)cnc3OC)sc2C1 [Example 1003, 5-chloro-2-methoxy-N-(5-(2-methoxy-6-(trifluoromethyl)nicotinoyl)-5,6-dihydro-4H-pyrrolo[3,4-d]thiazol-2-yl)-6′-methyl-[3,4′-bipyridine]-3′-carboxamide] | ≥ 10 |  | 
0.001 to 0.1 | COc1ncc(Cl)cc1-c1cc(C)ncc1C(=O)Nc1nc2c(s1)CN(C(=O)c1nccc(C(F)(F)F)c1OC)C2 [Example 1034, 5-chloro-2-methoxy-N-(5-(3-methoxy-4-(trifluoromethyl)picolinoyl)-5,6-dihydro-4H-pyrrolo[3,4-d]thiazol-2-yl)-6′-methyl-[3,4′-bipyridine]-3′-carboxamide] | ≥ 10 |  | 
0.001 to 0.1 | CCc1nc(C(F)(F)F)ccc1C(=O)N1Cc2nc(NC(=O)c3cnc(C)cc3-c3cc(Cl)ncc3OC)sc2C1 [Example 970, 2′-chloro-N-(5-(2-ethyl-6-(trifluoromethyl)nicotinoyl)-5,6-dihydro-4H-pyrrolo[3,4-d]thiazol-2-yl)-5′-methoxy-6-methyl-[4,4′-bipyridine]-3-carboxamide] | ≥ 10 |  | 
0.001 to 0.1 | COc1cnc(Cl)cc1-c1cc(C)ncc1C(=O)Nc1nc2c(s1)CN(C(=O)c1ccc(OC(F)(F)F)c(C)n1)C2 [Example 995, 2′-chloro-5′-methoxy-6-methyl-N-(5-(6-methyl-5-(trifluoromethoxy)picolinoyl)-5,6-dihydro-4H-pyrrolo[3,4-d]thiazol-2-yl)-[4,4′-bipyridine]-3-carboxamide] | ≥ 10 |  | 
0.001 to 0.1 | COc1cnc(Cl)cc1-c1cc(C)ncc1C(=O)Nc1nc2c(s1)CN(C(=O)c1nc(C(F)(F)F)ccc1OC)C2 [Example 937, 2′-chloro-5′-methoxy-N-(5-(3-methoxy-6-(trifluoromethyl)picolinoyl)-5,6-dihydro-4H-pyrrolo[3,4-d]thiazol-2-yl)-6-methyl-[4,4′-bipyridine]-3-carboxamide] | ≥ 10 |  | 
0.001 to 0.1 | COc1cnc(Cl)cc1-c1cc(C)ncc1C(=O)Nc1nc2c(s1)CN(C(=O)c1ccc(C(F)(F)F)nc1OC)C2C (stereo not shown) [Example 1033, 2′-chloro-5′-methoxy-N-(5-(2-methoxy-6-(trifluoromethyl)nicotinoyl)-4-methyl-5,6-dihydro-4H-pyrrolo[3,4-d]thiazol-2-yl)-6-methyl-[4,4′-bipyridine]-3-carboxamide] | ≥ 10 |  | 
0.001 to 0.1 | COc1cnc(Cl)cc1-c1cc(C)ncc1C(=O)Nc1nc2c(s1)CN(Cc1ccc(C(F)F)cc1F)C2 [Example 964, 2′-chloro-N-(5-(4-(difluoromethyl)-2-fluorobenzyl)-5,6-dihydro-4H-pyrrolo[3,4-d]thiazol-2-yl)-5′-methoxy-6-methyl-[4,4′-bipyridine]-3-carboxamide] | ≥ 10 |  | 
0.001 to 0.1 | COc1cnc(Cl)cc1-c1cc(C)ncc1C(=O)Nc1nc2c(s1)CN(C(=O)c1nc(C)c(C#N)cc1F)C2 [Example 1006, 2′-chloro-N-(5-(5-cyano-3-fluoro-6-methylpicolinoyl)-5,6-dihydro-4H-pyrrolo[3,4-d]thiazol-2-yl)-5′-methoxy-6-methyl-[4,4′-bipyridine]-3-carboxamide] | ≥ 10 |  | 
0.001 to 0.1 | COc1cnc(Cl)cc1-c1cc(C)ncc1C(=O)Nc1nc2c(s1)CN(C(=O)c1ccc(OC(F)F)nc1OC)C2 [Example 985, 2′-chloro-N-(5-(6-(difluoromethoxy)-2-methoxynicotinoyl)-5,6-dihydro-4H-pyrrolo[3,4-d]thiazol-2-yl)-5′-methoxy-6-methyl-[4,4′-bipyridine]-3-carboxamide] | ≥ 10 |  | 
0.001 to 0.1 | COc1cnc(Cl)cc1-c1cc(C)ncc1C(=O)Nc1nc2c(s1)CN(C(=O)c1ccc(C(F)(F)F)c(OC)n1)C2 [Example 962, 2′-chloro-5′-methoxy-N-(5-(6-methoxy-5-(trifluoromethyl)picolinoyl)-5,6-dihydro-4H-pyrrolo[3,4-d]thiazol-2-yl)-6-methyl-[4,4′-bipyridine]-3-carboxamide] | 5 to 10 |  | 
0.001 to 0.1 | COc1cnc(Cl)cc1-c1cc(C)ncc1C(=O)Nc1nc2c(s1)CN(C(=O)c1ncc(C(F)(F)F)nc1OC)C2 [Example 945, 2′-chloro-5′-methoxy-N-(5-(3-methoxy-5-(trifluoromethyl)pyrazine-2-carbonyl)-5,6-dihydro-4H-pyrrolo[3,4-d]thiazol-2-yl)-6-methyl-[4,4′-bipyridine]-3-carboxamide] | ≥ 10 |  | 
0.001 to 0.1 | COc1cnc(Cl)cc1-c1cc(C)ncc1C(=O)Nc1nc2c(s1)CN(C(=O)c1ccc(OC(F)(F)F)nc1C)C2 [Example 1018, 2′-chloro-5′-methoxy-6-methyl-N-(5-(2-methyl-6-(trifluoromethoxy)nicotinoyl)-5,6-dihydro-4H-pyrrolo[3,4-d]thiazol-2-yl)-[4,4′-bipyridine]-3-carboxamide] | ≥ 10 |  | 
0.001 to 0.1 | COc1cnc(Cl)cc1-c1cc(C)ncc1C(=O)Nc1nc2c(s1)CN(C(=O)c1c(C)cc(C(F)(F)F)nc1OC)C2 [Example 1019, 2′-chloro-5′-methoxy-N-(5-(2-methoxy-4-methyl-6-(trifluoromethyl)nicotinoyl)-5,6-dihydro-4H-pyrrolo[3,4-d]thiazol-2-yl)-6-methyl-[4,4′-bipyridine]-3-carboxamide] | ≥ 10 |  | 

Reference: patent publication US20250230171A1 (MOMA Therapeutics, Inc., priority 2023, published 2025)
